Source: PubChem BioAssay AID248 (DTP/NCI, 2004)
Where “and” joins values, the source holds several entries; their conditions need not be identical. Equal entries are not always repeated. Inconclusive results and toxic doses are left out. No stated cut-off is given here; in the data, active means T/C of 150% or more; inactive means T/C below 125%.

System: L1210 leukemia ip in BDF1 mice, survival T/C
Experiment: NCI In Vivo Anticancer Drug Screen. Data for tumor model L1210 Leukemia (intraperitoneal) in B6D2F1 (BDF1) mice
Settings: endpoint: mean survival time, higher = longer survival
Procedure, shortened: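 Read-out is survival time, reported as the treated-group measurement over the vehicle-control measurement.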

[1] = dose: 100.0 mg/kg/injection, schedule: Q04DX003 (ip), vehicle: saline with Tween-80
[2] = dose: 200.0 mg/kg/injection, schedule: Q04DX003 (ip), vehicle: saline with Tween-80
[3] = dose: 400.0 mg/kg/injection, schedule: Q04DX003 (ip), vehicle: saline with Tween-80
[4] = dose: 100.0 mg/kg/injection, schedule: Q04DX003 (ip), vehicle: gum acacia
[5] = dose: 200.0 mg/kg/injection, schedule: Q04DX003 (ip), vehicle: gum acacia
[6] = dose: 400.0 mg/kg/injection, schedule: Q04DX003 (ip), vehicle: gum acacia
[7] = dose: 100.0 mg/kg/injection, schedule: Q04DX003 (ip), vehicle: saline
[8] = dose: 100.0 mg/kg/injection, schedule: Q01DX009 (ip), vehicle: Klucel (hydroxypropylcellulose) (HPC)
[9] = dose: 100.0 mg/kg/injection, schedule: Q04DX003 (ip), vehicle: Klucel (hydroxypropylcellulose) (HPC)
[10] = dose: 200.0 mg/kg/injection, schedule: Q01DX009 (ip), vehicle: Klucel (hydroxypropylcellulose) (HPC)
[11] = dose: 200.0 mg/kg/injection, schedule: Q04DX003 (ip), vehicle: Klucel (hydroxypropylcellulose) (HPC)
[12] = dose: 400.0 mg/kg/injection, schedule: Q04DX003 (ip), vehicle: Klucel (hydroxypropylcellulose) (HPC)
[13] = dose: 50.0 mg/kg/injection, schedule: Q01DX001 (ip), vehicle: saline
[14] = dose: 100.0 mg/kg/injection, schedule: Q01DX001 (ip), vehicle: saline
[15] = dose: 200.0 mg/kg/injection, schedule: Q01DX001 (ip), vehicle: saline
[16] = dose: 100.0 mg/kg/injection, schedule: Q01DX009 (ip), vehicle: saline sonified
[17] = dose: 200.0 mg/kg/injection, schedule: Q01DX009 (ip), vehicle: saline sonified

Measured: T/C

CCCCCCCC(=O)Nc1cccc(C)c1C
inactive: [1] 101 % of control | [2] 87 % of control | [3] 101 % of control

CCc1ccc(NC(=O)Nc2ccc(OC)cc2)cc1
inactive: dose: 100.0 mg/kg/injection, schedule: Q01DX009 (ip), vehicle: gum acacia 97 % of control | [4] 95 % of control | dose: 200.0 mg/kg/injection, schedule: Q01DX009 (ip), vehicle: gum acacia 92 % of control | [5] 92 % of control | dose: 400.0 mg/kg/injection, schedule: Q01DX009 (ip), vehicle: gum acacia 91 % of control | [6] 94 % of control

CCC[N+](CC)(CC)CCOC(=O)C1C2CC3OC(=O)C1C3C2 (stereo not drawn)
inactive: [7] 101 % of control

NNC(=O)Cc1nc2ccccc2[nH]c1=O
inactive: [8] 102 % of control | [9] 106 % of control | [10] 96 % of control | [11] 95 % of control | [12] 98 % of control

O=Ic1ccccc1
inactive: dose: 25.0 mg/kg/injection, schedule: Q01DX009 (ip), vehicle: Klucel (hydroxypropylcellulose) (HPC) 103 % of control | dose: 50.0 mg/kg/injection, schedule: Q01DX009 (ip), vehicle: Klucel (hydroxypropylcellulose) (HPC) 98 % of control | dose: 50.0 mg/kg/injection, schedule: Q04DX003 (ip), vehicle: Klucel (hydroxypropylcellulose) (HPC) 93 % of control | [9] 89 % of control

NC(=O)c1cccc([N+](=O)[O-])c1Br
inactive: [9] 103 % of control | [11] 98 % of control

Nc1ccc(N=Nc2ccccc2)cc1[N+](=O)[O-]
inactive: [1] 98 % of control | [2] 96 % of control | [3] 94 % of control

CCN(CC)Cc1ccc(C2=NCCO2)cc1
inactive: [13] 91 % of control | [14] 94 % of control | [15] 98 % of control

O=[N+]([O-])c1cccc(C=Nc2cccc([N+](=O)[O-])c2)c1
inactive: [4] 95 % of control | [5] 93 % of control | [6] 98 % of control

CC(=O)c1ccc(N2CCN(C)CC2)cc1
inactive: [13] 100 % of control | [14] 102 % of control

CCCCCCCCCCCCO[P+](=O)OCCCCCCCCCCCC
inactive: [16] 93 % of control | [7] 95 % of control | [17] 93 % of control | dose: 200.0 mg/kg/injection, schedule: Q04DX003 (ip), vehicle: saline 100 % of control | dose: 222.0 mg/kg/injection, schedule: Q01DX Z (ip), vehicle: methylcellulose (MC) 96 % of control | dose: 333.0 mg/kg/injection, schedule: Q01DX Z (ip), vehicle: methylcellulose (MC) 95 % of control | dose: 400.0 mg/kg/injection, schedule: Q04DX003 (ip), vehicle: saline 90 % of control

COc1c(Cl)cc(Cl)cc1Cl
inactive: [16] 96 % of control | [9] 101 % of control | [17] 107 % of control | [11] 98 % of control | dose: 400.0 mg/kg/injection, schedule: Q01DX009 (ip), vehicle: saline sonified 97 % of control | [12] 104 % of control

CCCCN(C)N=Nc1ccc(C(=N)N)cc1
inactive: dose: 5.0 mg/kg/injection, schedule: Q01DX001 (ip), vehicle: carboxymethylcellulose (CMC) 106 % of control | dose: 10.0 mg/kg/injection, schedule: Q01DX001 (ip), vehicle: carboxymethylcellulose (CMC) 100 % of control | dose: 20.0 mg/kg/injection, schedule: Q01DX001 (ip), vehicle: carboxymethylcellulose (CMC) 100 % of control | dose: 40.0 mg/kg/injection, schedule: Q01DX001 (ip), vehicle: carboxymethylcellulose (CMC) 95 % of control | dose: 80.0 mg/kg/injection, schedule: Q01DX001 (ip), vehicle: carboxymethylcellulose (CMC) 101 % of control

CCCCNC(C)(C)CS
inactive: dose: 6.25 mg/kg/injection, schedule: Q01DX009 (ip), vehicle: saline 105 % of control | dose: 12.5 mg/kg/injection, schedule: Q01DX009 (ip), vehicle: saline 94 % of control | dose: 12.5 mg/kg/injection, schedule: Q04DX003 (ip), vehicle: saline 100 % of control | dose: 25.0 mg/kg/injection, schedule: Q01DX009 (ip), vehicle: saline 96 % of control | dose: 25.0 mg/kg/injection, schedule: Q04DX003 (ip), vehicle: saline 94 % of control | dose: 50.0 mg/kg/injection, schedule: Q01DX009 (ip), vehicle: saline 102 % of control | dose: 50.0 mg/kg/injection, schedule: Q04DX003 (ip), vehicle: saline 102 % of control | dose: 75.0 mg/kg/injection, schedule: Q01DX009 (ip), vehicle: saline 105 % of control

CC(=O)N/N=C(/C)c1cccs1
inactive: [14] 103 % of control | [15] 109 % of control | dose: 400.0 mg/kg/injection, schedule: Q01DX001 (ip), vehicle: saline 100 % of control

NNc1c(F)c(F)c(NN)c(F)c1F
inactive: dose: 6.25 mg/kg/injection, schedule: Q04DX003 (ip), vehicle: Klucel (hydroxypropylcellulose) (HPC) 96 % of control | dose: 12.5 mg/kg/injection, schedule: Q04DX003 (ip), vehicle: Klucel (hydroxypropylcellulose) (HPC) 93 % of control | dose: 25.0 mg/kg/injection, schedule: Q04DX003 (ip), vehicle: Klucel (hydroxypropylcellulose) (HPC) 95 % of control

COC(=O)c1ccccc1NN=Nc1ccccc1[N+](=O)[O-]
inactive: [8] 93 % of control | [9] 97 % of control and 86 % of control | [10] 88 % of control | [11] 98 % of control and 89 % of control | dose: 400.0 mg/kg/injection, schedule: Q01DX009 (ip), vehicle: Klucel (hydroxypropylcellulose) (HPC) 97 % of control | [12] 95 % of control and 97 % of control

O=[N+]([O-])c1ccc(Oc2ccccc2)c(S(=O)(=O)O)c1
inactive: [1] 103 % of control | [2] 94 % of control | [3] 97 % of control
